Key:
[1] = test system: 22Rv1 prostate carcinoma cells; experiment: In vitro cytotoxicity testing (MTT assay), 22Rv1; type: cell-based, human; details: 24 h drug exposure, no recovery, read-out: IC50±SD, 22Rv1
Protocol: (§1) A2780 ovarian carcinoma, A2780R cisplatin-resistant ovarian carcinoma, HOS osteosarcoma, G361 malignant melanoma, MCF7 breast carcinoma, A549 lung carcinoma, HeLa cervix carcinoma, 22Rv1 prostate carcinoma and Caco-2 colorectal carcinoma human cancer cell lines were purchased from the European Collection of Cell Cultures (ECACC), while the human non-cancerous hepatocytes (Hep) were supplied by Biopredic Intl. The cell lines were cultured, according to the suppliers`instructions, in RPMI-1640 medium supplemented with 10% of fetal calf serum, 1% of 2 mM glutamine, and 1% penicillin/streptomycin. All cell lines were grown as adherent monolayers at 37°C and 5% CO2 in a humidified atmosphere.
(§2) The cells were seeded to 96-well culture plates, pre-incubated in drug-free media at 37°C for 24 h and treated typically with the 0.01–50.0 μM solutions, prepared from the stock solutions by dilution with medium, for 24 h at 37°C. […] In parallel with compounds 1–8 and the reference drugs, the cells were also treated with vehicle (0.1% DMF in medium; negative control) and Triton X-100 (1%; positive control) to assess the minimal and maximal cell damage, respectively. The MTT assay was used to determine the cell viability; MTT = 3-(4,5-dimethylthiazol-2-yl)-2,5-diphenyltetrazolium bromide. A concentration of the formed dye was evaluated spectrophotometrically at 540 nm (TECAN, Schoeller Instruments LLC).
(§3) The data were expressed as the percentage of viability, where 100% and 0% represents the treatments with negative and positive controls, respectively. The data from the cancer cells were acquired from three independent experiments (conducted in triplicate) using cells from different passages. The resulting IC50 values (μM) were calculated from viability curves and the results are presented as arithmetic mean±SD.

[2] = test system: L1210 mouse lymphocytic leukaemia cells; experiment: In vivo antitumour activity testing, L1210 lymphocytic leukaemia model; set-up: species or system mice; details: i.p.; for percentage of mean survival time T/C / mean survival time ± SD / tolerability / signs of toxicity (e.g. weight loss): dose equimolar to cisplatin 2 mg/kg; for mean survival time ± SD: 10 days after implantation, control 17.4±1.6 days
Protocol: The experimental animals used for in vivo antitumour testing were female DBA/2 SPF mice obtained from Charles Rivers Laboratories. The animals were housed in the Sealsafe NEXT—IVC Blue Line Housing System (Tecniplast, Italy) to ensure the best possible experimental conditions and eliminate the risk of possible intergroup cross-contamination, and kept in Plexiglas cages at constant temperature (22±1°C) and relative humidity of 55±5% for one-week adaptation period before the start of the experiment. All experimental procedures were performed according to the National Institute of Health (NIH) Guide for the Care and Use of Laboratory Animals. The protocol was approved by the Expert Committee on the Protection of Animals Against Cruelty at the University of Veterinary and Pharmaceutical Sciences Brno (Permit Number: 71/2013). The number of pharmacological interventions was limited to the necessary minimum in order to minimize the suffering of animals, which were observed regularly for the symptoms connected with the tumour progression. […] No animals had to be sacrificed due to the above mentioned criteria of humane treatment and no post-application deaths within the 2 hours after the application were observed during the experiment. […] The animal tissues for the ex vivo experiments and histological evaluations were taken post mortem, in case of surviving animals immediately after they were sacrificed by the lethal dose of carbon dioxide inhalation, immediately followed by the cervical dislocation.
The animals were monitored several times a day for the signs of tumour progression and distress development.

[3] = test system: human non-cancerous hepatocytes (Hep); experiment: In vitro cytotoxicity testing (MTT assay), hepatocytes; type: cell-based; details: 24 h drug exposure, no recovery
Protocol: as §1, §2, §3

[4] = test system: A2780 cells; experiment: Cell cycle analysis (PI/RNase, flow cytometry), A2780; type: cell-based, human; details: A2780, 24 h, IC50 concentration
Protocol: (§4) The A2780 and MCF7 cells (1.0 × 10^6 per well) were pre-incubated in a six-well plate for 24 h as described above. […] After 24 h, floating cells were collected and attached cells were harvested using trypsin/EDTA in PBS. Total cells were washed twice with PBS and fixed in 70% ethanol. Cells were re-suspended in PBS and DNA staining was achieved by a solution of propidium iodide (PI) supplemented with RNase A (30 min, 25°C, in the dark). […] The data were analysed using CytExpert™ software (Beckman Coulter).

[5] = test system: G361 malignant melanoma cells; experiment: In vitro cytotoxicity testing (MTT assay), G361; type: cell-based, human; details: 24 h drug exposure, no recovery, read-out: IC50±SD, G361
Protocol: as §1, §2, §3

[6] = test system: MCF7 cells; experiment: Cell cycle analysis (PI/RNase, flow cytometry), MCF7; type: cell-based, human; details: MCF7, 24 h, IC50 concentration
Protocol: as §4

[7] = test system: HeLa cervix carcinoma cells; experiment: In vitro cytotoxicity testing (MTT assay), HeLa; type: cell-based, human; details: 24 h drug exposure, no recovery, read-out: IC50±SD, HeLa
Protocol: as §1, §2, §3

[8] = test system: pUC19 plasmid dsDNA; experiment: Gel electrophoresis studies of interaction with pUC19 plasmid dsDNA; set-up: species or system Escherichia coli; details: 37°C, 24 h; for effect on electrophoretic mobility of pUC19 forms (SC, OC, L): 0.23-2.30 μM
Protocol: Supercoiled pUC19 plasmid dsDNA (2686 bp, 1750 kDa) was isolated from Escherichia coli TOP10F’ by QIAprep Spin Miniprep Kit (Qiagen, Germany). The concentration and purity of the isolated plasmid DNA were evaluated spectrophotometrically. Plasmid was dissolved in nuclease-free water and stored at –20°C.
2 μL of these solutions were added to 18 μL of the pUC19 plasmid DNA water solution (300 ng per reaction, corresponding to a concentration of 23 μM calculated for the base pairs) and the mixture was left to react in the final 10% DMF/90% water solution containing the final concentrations of the complexes of 2.30, 1.15 and 0.23 μM, corresponding to 0.10, 0.05 and 0.01 metal-to-base pair stoichiometry. In parallel, the experiment was performed on plasmid DNA in the 10% DMF/90% water solution and in water. The reaction mixtures were incubated at 37°C for 24 h. An electrophoretic mobility was evaluated by gel electrophoresis ([…], 3 h) performed on a 0.8% (w/v) agarose gel containing EtBr (2.0 mg/L (w/v)) at ambient temperature in Tris-acetate/EDTA buffer. The bands on the obtained electrophoretogram were detected by an MUV21-CP-02 gel scanner (Major Science) and analysed with AlphaEaseFC software (version 4.0.0.34, Alpha Innotech) in order to evaluate the relative percentages of the SC, OC and L forms. Each experiment was performed in triplicate.

[9] = test system: HOS osteosarcoma cells; experiment: In vitro cytotoxicity testing (MTT assay), HOS; type: cell-based, human; details: for IC50: 24 h drug exposure, no recovery, MTT, read-out: IC50±SD, HOS; for selectivity factor IC50(Hep)/IC50(cancer cell line): HOS; for times more potent than cisplatin: HOS cell line
Protocol: as §1, §2, §3

[10] = test system: A2780R cisplatin-resistant ovarian carcinoma cells; experiment: In vitro cytotoxicity testing (MTT assay), A2780R; type: cell-based, human; details: for IC50: 24 h drug exposure, no recovery, MTT, read-out: IC50±SD, A2780R; for resistance factor (RF), IC50(A2780R)/IC50(A2780): 24 h IC50 values
Protocol: All cell lines were grown as adherent monolayers at 37°C and 5% CO2 in a humidified atmosphere.
The MTT assay was used to determine the cell viability; MTT = 3-(4,5-dimethylthiazol-2-yl)-2,5-diphenyltetrazolium bromide. A concentration of the formed dye was evaluated spectrophotometrically at 540 nm (TECAN, Schoeller Instruments LLC).
as §3

**Q.** What does the source list for N.N.[Cl][Pt][Cl] [Cisplatin, cisplatin, reference compound]?
**A.** IC50 [1]: 26.9 ± 3.5 µM; percentage of mean survival time T/C [2]: 108%; mean survival time ± SD [2]: 18.8 ± 2.4 days; maximum tolerated dose ([2]; mice): 2 mg/kg; IC50 [3]: > 75 µM; G0/G1 population [4]: 23.7±1.5%; G2/M population [4]: 23.0±2.2%; S population [4]: 50.6±2.8%; sub-G1 population [4]: 2.0±0.2%; IC50 [5]: 5.3 ± 0.7 µM; G0/G1 population [6]: 33.4±2.8%; G2/M population [6]: 38.2±1.9%; S population [6]: 26.3±1.9%; sub-G1 population [6]: 1.6±0.2%; IC50 [7]: 30.4 ± 11 µM; effect on electrophoretic mobility of pUC19 forms (SC, OC, L) [8]: increase the electrophoretic mobility; IC50 [9]: 18.9 ± 1.7 µM; IC50 [10]: > 50 µM

**Q.** What does the source list for Brc1cc[n+]([Pt-2]([I])([I])[n+]2ccc(Br)c3cc[nH]c32)c2[nH]ccc12 [Complex 6, cis-[Pt(4Braza)2I2]]?
**A.** IC50 [1]: 3.8 ± 0.1 µM; tolerability / signs of toxicity (e.g. weight loss) [2]: well-tolerated; percentage of mean survival time T/C [2]: 99%; mean survival time ± SD [2]: 17.3 ± 2.1 days; IC50 [3]: 4.1 µM; G0/G1 population [4]: 51.5±3.2%; G2/M population [4]: 26.3±1.6%; S population [4]: 17.5±0.9%; sub-G1 population [4]: 4.3±1.4%; IC50 [5]: 3.2 ± 0.2 µM; G0/G1 population [6]: 73.9±4.6%; G2/M population [6]: 16.6±2.1%; S population [6]: 7.2±1.6%; sub-G1 population [6]: 1.5±0.4%; IC50 [7]: 3.8 ± 0.2 µM; effect on electrophoretic mobility of pUC19 forms (SC, OC, L) [8]: did not significantly change the mobility; IC50 [9]: 0.4 ± 0.1 µM; selectivity factor IC50(Hep)/IC50(cancer cell line) [9]: ~10; times more potent than cisplatin [9]: ≤ 47 times; resistance factor (RF), IC50(A2780R)/IC50(A2780) [10]: 1.03; IC50 [10]: 3.3 ± 0.4 µM

**Q.** With Cc1cc2c(Cl)cc[n+]([Pt-2]([I])([I])[n+]3ccc(Cl)c4cc(C)[nH]c43)c2[nH]1 [Complex 8, cis-[PtI2(2Me4Claza)2]] as the compound, how does the IC50 [1] read?
**A.** 3.5 ± 0.2 µM

**Q.** And the “tolerability / signs of toxicity (e.g. weight loss)” value [2]?
**A.** well-tolerated

**Q.** What about the “percentage of mean survival time T/C” value [2] of the same compound?
**A.** 109%

**Q.** What about the “mean survival time ± SD” value [2] of the same compound?
**A.** 19.0 ± 2.4 days

**Q.** And the IC50 [3]?
**A.** 9.5 µM

**Q.** And the G0/G1 population [4]?
**A.** 55.2±2.2%

**Q.** And the G2/M population [4]?
**A.** 23.9±2.3%

**Q.** And the S population [4]?
**A.** 18.3±1.3%

**Q.** And the sub-G1 population [4]?
**A.** 2.2±0.4%

**Q.** What about the IC50 [5] of the same compound?
**A.** 1.7 ± 1.3 µM

**Q.** And the G0/G1 population [6]?
**A.** 64.5±3.3%

**Q.** What about the G2/M population [6] of the same compound?
**A.** 25.4±2.6%

**Q.** What about the S population [6] of the same compound?
**A.** 8.9±2.1%

**Q.** What about the sub-G1 population [6] of the same compound?
**A.** 1.2±0.4%

**Q.** What about the IC50 [7] of the same compound?
**A.** 3.8 ± 0.1 µM

**Q.** What about the “effect on electrophoretic mobility of pUC19 forms (SC, OC, L)” value [8] of the same compound?
**A.** did not significantly change the mobility

**Q.** And the “amount of damaged OC and linear (L) forms of pUC19 DNA” value ([8]; concentration-dependent)?
**A.** visibly increased

**Q.** And the IC50 [9]?
**A.** 0.7 ± 0.2 µM

**Q.** And the “selectivity factor IC50(Hep)/IC50(cancer cell line)” value [9]?
**A.** ~14

**Q.** And the “times more potent than cisplatin” value [9]?
**A.** ≤ 47 times

**Q.** What about the “resistance factor (RF), IC50(A2780R)/IC50(A2780)” value [10] of the same compound?
**A.** 0.59

**Q.** What about the IC50 [10] of the same compound?
**A.** 1 ± 0.4 µM
